Positions count from the first letter of the chain named. Where a SMILES comes first, the peptide text is derived from it. [ ]: non-standard residue; d: D form. pT = C[C@@H](OP(=O)(O)O)[C@H](N)C(=O)O; pS = N[C@@H](COP(=O)(O)O)C(=O)O
Assays:
[1] = target: T1, Mad1^CTD Q627A (Homo sapiens, UniProt Q9Y6D9, Q627A); experiment: ITC, Mad1^CTD Q627A; type: binding; settings: 20°C, pH 7.5, Q627A, average of at least three experiments ± SD
T1 construct: human Mad1^CTD homodimer (residues 597–718); double Strep His6-tag with TEV site (N, cleaved yes); made in house; host or cells: E. coli Rosetta 2 (DE3)
T1 sequence (Q9Y6D9 597-718 Q627A limits assumed): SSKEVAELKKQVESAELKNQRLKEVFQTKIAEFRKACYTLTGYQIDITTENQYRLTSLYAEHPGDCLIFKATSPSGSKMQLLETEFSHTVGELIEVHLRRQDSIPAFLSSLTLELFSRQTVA
Text: (§1) The coding region of Mad1^597–719 was cloned by USER® (NEB) into a modified pRSFDuet‐1 vector (71341‐3, Sigma‐Aldrich) with an N‐terminal double Strep His6‐tag, followed by a tobacco etch virus (TEV) protease cleavage site (Demple & Linn, [1982]; Bitinaite et al, [1992]). Mad1 mutants were generated using the QuikChange™ Lightning Site‐Directed Mutagenesis Kit (Agilent), developed by Stratagene Inc. (La Jolla, CA) (Nøhr & Kristiansen, [2003]). Mad1 constructs were transformed into Rosetta™ 2 (DE3) Singles™ Competent Cells (71400, Novagen) for expression. Expression was induced with 0.5 mM IPTG and grown overnight at 18°C. Cells were lysed in 25 mM HEPES pH 8.1, 250 mM NaCl, 2 mM DTT, 5% glycerol, 2 mM EDTA supplemented with lysozyme, and Complete™ EDTA‐free protease inhibitors (Roche). Proteins were purified over a Strep‐Tactin Superflow Plus column (QIAGEN) and cleaved with TEV protease overnight at 4°C. The cleaved Mad1^CTD was then diluted to 50 mM NaCl, purified over an anion exchange (Resource Q, GE Healthcare) column, followed by size exclusion chromatography using a Superdex 75 Increase column (GE Healthcare). Mad1^CTD was concentrated to 35 mg/ml in a buffer of 20 mM HEPES pH 7.5, 100 mM NaCl and 1 mM TCEP.
(§2) Isothermal titration calorimetry (ITC) was performed using an Auto‐iTC200 instrument (Malvern Instruments, Malvern, UK) at 20°C. […]

[2] = target: T2, Mad1^CTD K619A (Homo sapiens, UniProt Q9Y6D9, K619A); experiment: ITC, Mad1^CTD K619A; type: binding; settings: 20°C, pH 7.5, K619A, average of at least three experiments ± SD
T2 construct: human Mad1^CTD homodimer (residues 597–718); double Strep His6-tag with TEV site (N, cleaved yes); made in house; host or cells: E. coli Rosetta 2 (DE3)
T2 sequence (Q9Y6D9 597-718 K619A limits assumed): T1 sequence (Q9Y6D9 597-718 Q627A limits assumed) with K23A, A31Q
Text: as §1, §2

[3] = target: T3, Mad1^CTD K614A (Homo sapiens, UniProt Q9Y6D9, K614A); experiment: ITC, Mad1^CTD K614A; type: binding; settings: 20°C, pH 7.5, K614A, average of at least three experiments ± SD
T3 construct: human Mad1^CTD homodimer (residues 597–718); double Strep His6-tag with TEV site (N, cleaved yes); made in house; host or cells: E. coli Rosetta 2 (DE3)
T3 sequence (Q9Y6D9 597-718 K614A limits assumed): T1 sequence (Q9Y6D9 597-718 Q627A limits assumed) with K18A, A31Q
Text: as §1, §2

[4] = Peptide solubility; type: physicochemical; settings: Hepes buffer, aqueous buffer; 20 mM Hepes, pH 7.5, 100 mM NaCl, 1 mM TCEP, without DMSO; read-out: solubility
Procedure: Our ITC and sedimentation equilibrium experiments to measure the stoichiometry of the Mad1^CTD‐Bub1^CD1 interaction were performed with concentrations of Mad1 at 100 µM or lower, and titrating Bub1 until a twofold‐fourfold molar excess was obtained. However, our ^31P NMR experiments were conducted with around 0.25 to 0.5 mM of each, and still only one binding event was detected. […] DMSO interfered with ITC enthalpy changes and the NMR signal from DMSO obscured the protein peaks. In contrast, our Mad1^CTD‐Bub1^CD1 crystal structure was obtained through co‐crystallization of Mad1^CTD at a final concentration of 0.35 mM and Bub1^CD1 at 2.5 mM in 5% DMSO. The use of millimolar concentrations of peptide, and the presence of DMSO and isopropanol, required for Mad1^CTD‐Bub1^CD1 crystallization, may explain the association of a second peptide in the crystallized complex. […]
which are affected are already mapped out in Fig 5B, and this can be tracked across Bub1CD1 […]
We thank the reviewer for their positive and constructive comments.
1) On page 2, the first line of the third paragraph, Msp1 should be Mps1.
Response: Thank you, we have corrected this error.
2) Please provide a figure to show the omit map (2Fo−Fc map) for the BUB1 CD1 peptide.
Response: We have created a 2Fo-Fc omit map and included it in Fig EV2D and updated the figure legend accordingly. […]
2) p. 5, near bottom. The authors state that the singly phosphorylated Bub1 peptide (on Thr-461) is less soluble than the double phosphorylated peptide (also phosphorylated on Ser-459), which may explain previous reports that P-Ser-459 contributes to binding Mad1-CTD. It would be helpful if the authors could quantify this reduced solubility.
Response: We realise that our comment on the reduced solubility of the singly phosphorylated pT461 peptide is likely confusing, so we have removed this comment.
In terms of quantifying the reduced solubility, we observed an approximately 2-fold reduction of the solubility of the singly phosphorylated peptide. […]

[5] = target: T4, Mad1^CTD R630A (Homo sapiens, UniProt Q9Y6D9, R630A); experiment: ITC, Mad1^CTD R630A; type: binding; settings: 20°C, pH 7.5, R630A, average of at least three experiments ± SD
T4 construct: human Mad1^CTD homodimer (residues 597–718); double Strep His6-tag with TEV site (N, cleaved yes); made in house; host or cells: E. coli Rosetta 2 (DE3)
T4 sequence (Q9Y6D9 597-718 R630A limits assumed): T1 sequence (Q9Y6D9 597-718 Q627A limits assumed) with A31Q, R34A
Text: as §1, §2

[6] = target: T5, human Mad1^CTD (WT) homodimer (Homo sapiens, UniProt Q9Y6D9); experiment: ITC of Bub1^CD1 peptides binding to wild-type Mad1^CTD; settings: for binding to Mad1^CTD by ITC, in words: pH 7.5, Mad1^CTD WT
T5 construct: human Mad1^CTD homodimer (residues 597–718); double Strep His6-tag with TEV site (N, cleaved yes); made in house; host or cells: E. coli Rosetta 2 (DE3)
T5 sequence (Q9Y6D9 597-718): T1 sequence (Q9Y6D9 597-718 Q627A limits assumed) with A31Q
Text: as §1
Bub1^CD1 peptides were ordered from Designer Bioscience UK, at 95% purity. The full peptide sequence used in this study was (W)KVQP{pS}P{pT}VHTKEALGFIMNMFQAPTS. (W) = peptide with an additional N‐terminal tryptophan was used to confirm peptide concentration in stoichiometry studies.
Isothermal titration calorimetry (ITC) was performed using an Auto‐iTC200 instrument (Malvern Instruments, Malvern, UK) at 20°C. Mad1^CTD and Bub1^CD1 peptide mutants were dialysed into 20 mM HEPES pH 7.5, 100 mM NaCl, 1 mM TCEP. For each titration between 30–100 µM of Mad1 was pipetted into the calorimeter cell. The Bub1^CD1 peptides at 0.3–1.5 mM were titrated into the cell consisting of one 0.5 µl injection followed by 19 injections of 2 µl each. The changes in the heat released were integrated over the entire titration and fitted to a single‐site binding model using the MicroCal PEAQ‐ITC Analysis Software 1.0.0.1258 (Malvern Instruments). Titrations were performed in triplicate. Calculations for stoichiometry were based on the molar concentrations of dimeric Mad1^CTD.

[7] = target: T6, Mad1^CTD QRRI** (Q627A, R650A, I643A, R630A) (Homo sapiens, UniProt Q9Y6D9, I643A/Q627A/R630A/R650A); experiment: ITC, Mad1^CTD QRRI** quadruple mutant; type: binding; settings: 20°C, pH 7.5, QRRI**, average of at least three experiments ± SD
T6 construct: human Mad1^CTD homodimer (residues 597–718); double Strep His6-tag with TEV site (N, cleaved yes); made in house; host or cells: E. coli Rosetta 2 (DE3)
T6 sequence (Q9Y6D9 597-718 Q627A/R630A/I643A/R650A limits assumed): T1 sequence (Q9Y6D9 597-718 Q627A limits assumed) with R34A, I47A, R54A
Text: as §1, §2

[8] = parameters: method as in Zhang et al, 2017; settings: ref Zhang et al, 2017; cited from earlier work
[9] = 1H 1D NMR of free Bub1^CD1 peptides (conformation); type: physicochemical; settings: narrow dispersion of amide peaks, not bound to Mad1
Procedure: ^1H‐detected experiments were performed on 600 and 800 MHz Avance III spectrometers, both equipped with triple resonance TCI CryoProbes (Bruker). ^31P 1D NMR spectra were recorded on a 500 MHz Avance II spectrometer equipped with a broadband BBO cryoprobe (Bruker). All spectra were collected in 50 mM HEPES, pH 7.0, 100 mM NaCl, 2 mM TCEP, 0.02% NaN3 at 298K. Standard ^2H decoupled TROSY‐based triple resonance experiments were used for backbone resonance assignments: HNCO, HN(CA)CO, HNCA, HN(CO)CA, HNCACB, HN(CO)CACB and HN(COCA)NNH (Pervushin, [2020]). Backbone datasets were collected with 20–25% non‐uniform sampling and reconstructed using compressed sensing in MddNMR (Mayzel et al, [2014]). Topspin 3.6 (Bruker) was used for processing and NMRFAM‐Sparky 1.47 for data analysis (Lee et al, [2015]). Backbone assignments were obtained in Mars (Jung & Zweckstetter, [2004]). Secondary chemical shifts were calculated from the differences between observed Cα/Cβ chemical shifts and Cα/Cβ chemical shifts for random coils (Kjaergaard & Poulsen, [2011]). […]

[10] = system: 15N-labelled Mad1^CTD; experiment: NMR titration (1H,15N HSQC) of Bub1^CD1 peptides into 15N-labelled Mad1^CTD; type: binding, human; settings: 298K, 50 mM HEPES pH 7.0, 100 mM NaCl, 2 mM TCEP, 0.02% NaN3
Procedure: Isotopically labelled Mad1^CTD was expressed in M9 minimal media (6 g/l Na2HPO4, 3 g/l KH2PO4, 0.5 g/l NaCl) supplemented with 1.7 g/l yeast nitrogen base without NH4Cl and amino acids (Sigma Y1251). 1 g/l ^15NH4Cl and 4 g/l unlabelled glucose were supplemented for ^15N labelling. For the deuteration of nonlabile sidechain protons, cells were adapted for growth in 10, 44 and 78% deuterated media on agar plates before they were grown in large cultures supplemented with 1 g/l ^15NH4Cl and 4 g/l ^2H^13C‐glucose in 99% D2O (Sigma). Prior to NMR experiments, isotopically labelled Mad1^CTD and Bub1^CD1 peptide were dialysed into 25 mM HEPES, pH 7.0, 100 mM NaCl, 1 mM TCEP.
^1H‐detected experiments were performed on 600 and 800 MHz Avance III spectrometers, both equipped with triple resonance TCI CryoProbes (Bruker). ^31P 1D NMR spectra were recorded on a 500 MHz Avance II spectrometer equipped with a broadband BBO cryoprobe (Bruker). All spectra were collected in 50 mM HEPES, pH 7.0, 100 mM NaCl, 2 mM TCEP, 0.02% NaN3 at 298K. […] Secondary chemical shifts were calculated from the differences between observed Cα/Cβ chemical shifts and Cα/Cβ chemical shifts for random coils (Kjaergaard & Poulsen, [2011]). […]

Row | Molecule | Kd [1] [µM] | Kd [2] [µM] | Kd [3] [µM] | solubility [4] [µM] | Kd [5] [µM] | Kd ([6]; 20°C, 20 mM HEPES pH 7.5, 100 mM NaCl, 1 mM TCEP, 30–100 µM Mad1 in cell, 0.3–1.5 mM peptide, single-site model, average of at least three experiments ± SD) [µM] | KD at lowered peptide concentration ([6]; lowered concentration of doubly phosphorylated peptide (usual: 100 µM Mad1CTD, 1 mM peptide)) | Kd [7] [µM] | conformation of unbound peptide by circular dichroism, in words [8] | conformation of free peptide, in words [9] | binding to Mad1^CTD by ITC, in words ([6]; 20°C) | binding to Mad1^CTD by ITC, in words ([6]; 20°C, listed as unphosphorylated Bub1^CD1 peptide) | binding by NMR titration, in words [10]
1 | CC[C@H](C)[C@H](NC(=O)[C@H](Cc1ccccc1)NC(=O)CNC(=O)[C@H](CC(C)C)NC(=O)[C@H](C)NC(=O)[C@H](CCC(=O)O)NC(=O)[C@H](CCCCN)NC(=O)[C@@H](NC(=O)[C@H](Cc1c[nH]cn1)NC(=O)[C@@H](NC(=O)[C@@H](NC(=O)[C@@H]1CCCN1C(=O)[C@H](COP(=O)(O)O)NC(=O)[C@@H]1CCCN1C(=O)[C@H](CCC(N)=O)NC(=O)[C@@H](NC(=O)[C@@H](N)CCCCN)C(C)C)[C@@H](C)OP(=O)(O)O)C(C)C)[C@@H](C)O)C(=O)N[C@@H](CCSC)C(=O)N[C@@H](CC(N)=O)C(=O)N[C@@H](CCSC)C(=O)N[C@@H](Cc1ccccc1)C(=O)N[C@@H](CCC(N)=O)C(=O)N[C@@H](C)C(=O)N1CCC[C@H]1C(=O)N[C@H](C(=O)N[C@@H](CO)C(=O)O)[C@@H](C)O [pSpT CD1] (H-KVQP[pS]P[pT]VHTKEALGFIMNMFQAPTS-OH) | 2.4 ± 0.4 | 10.1 ± 5.4 | 2.4 ± 0.43 | ≥ 1500 | 10.1 ± 1.3 | 2.7 ± 1.2 | same KD | 24.9 ± 1.3 | – | – | – | – | –
2 | CD1: non‐phosphorylated Bub1^CD1 peptide (KVQPSPTVHTKEALGFIMNMFQAPTS; phosphoserine at 459, phosphothreonine at 461) | – | – | – | – | – | – | – | – | unstructured but might have helical propensity that is increased with Thr461 phosphorylation | unstructured when not bound to Mad1 | no binding | complete absence of interactions | failed to reveal Bub1‐Mad1 interactions
